In patent US20220281848A1, “PYRAZOLE-SUBSTITUTED PYRROLIDINONES AS HERBICIDES” (FMC Corporation, priority 2019, published 2022):

Key:
Type in all cases: in vivo
[1] = system: plants; assay: Test D post-emergence, other plants of Tables D2 and D4; conditions: post-emergence
Summary of the method: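 Damage was rated visually from 0 (none) to 100 (total), at 20 DAA for pre-emergence and 15 d for post-emergence. Plants grew from safener-treated seed in a glasshouse at 24/18° C. or 20/16° C. day/night, 65% humidity, watered twice daily.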

[2] = system: corn (Zea mays, ZEAMX); assay: Test A post-emergence, corn; conditions: after 13 d
Summary of the method: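 Visual damage at 13 d after treatment, rated from 0 (no damage) to 100 (total damage). Eight-day-old pot-grown plants had been sprayed with 15.625, 62.5 or 250 g/ha of compound in aqueous acetone (50:50) containing 0.5% Tween 20.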

[3] = system: velvetleaf (Abutilon theophrasti, ABUTH); assay: Test A pre-emergence, velvetleaf; conditions: after 13 d
Summary of the method: (§1)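 Seeds sown in pots of standard soil and sprayed one day later, pre-emergence, at 15.625, 62.5 or 250 g/ha in acetone/water (50:50) with 0.5% Tween 20. Grown in glasshouse at 24/16 °C, 14 h light, 65% humidity. Damage scored after 13 d (0 none, 100 total).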

[4] = system: barnyardgrass (Echinochloa crus-galli, ECHCG); assay: Test A pre-emergence, barnyardgrass; conditions: after 13 d
Summary of the method: as §1

[5] = system: ivy-leaved morning glory (Ipomoea hederacea, IPOHE); assay: Test A pre-emergence, ivy-leaved morning glory; conditions: after 13 d
Summary of the method: as §1

CCn1nc([C@H]2CN(C)C(=O)[C@@H]2C(=O)Nc2cccc(F)c2F)c2c(F)cccc21 [Compound 7]
damage to plant (100=total damage to plant; 0=no damage to plant), ABUTH ([1]; rate 130, evaluated after 15 d): 0 | damage to plant (100=total damage to plant; 0=no damage to plant), ABUTH ([1]; rate 250, evaluated after 15 d): 10 | damage to plant (100=total damage to plant; 0=no damage to plant), ABUTH ([1]; rate 500, evaluated after 15 d): 20 | damage to plant (100=total damage to plant; 0=no damage to plant), AMARE ([1]; rate 130, evaluated after 15 d): 0 | damage to plant (100=total damage to plant; 0=no damage to plant), AMARE ([1]; rate 250, evaluated after 15 d): 0 | damage to plant (100=total damage to plant; 0=no damage to plant), AMARE ([1]; rate 500, evaluated after 15 d): 10 | damage to plant (100=total damage to plant; 0=no damage to plant), BIDPI ([1]; rate 130, evaluated after 15 d): 0 | damage to plant (100=total damage to plant; 0=no damage to plant), BIDPI ([1]; rate 250, evaluated after 15 d): 0 | damage to plant (100=total damage to plant; 0=no damage to plant), BIDPI ([1]; rate 500, evaluated after 15 d): 0 | damage to plant (100=total damage to plant; 0=no damage to plant), BRAPL ([1]; rate 130, evaluated after 15 d): 0 | damage to plant (100=total damage to plant; 0=no damage to plant), BRAPL ([1]; rate 250, evaluated after 15 d): 80 | damage to plant (100=total damage to plant; 0=no damage to plant), BRAPL ([1]; rate 500, evaluated after 15 d): 80 | damage to plant (100=total damage to plant; 0=no damage to plant), CYPES ([1]; rate 130, evaluated after 15 d): 0 | damage to plant (100=total damage to plant; 0=no damage to plant), CYPES ([1]; rate 250, evaluated after 15 d): 0 | damage to plant (100=total damage to plant; 0=no damage to plant), CYPES ([1]; rate 500, evaluated after 15 d): 0 | damage to plant (100=total damage to plant; 0=no damage to plant), DIGSA ([1]; rate 130, evaluated after 15 d): 0 | damage to plant (100=total damage to plant; 0=no damage to plant), DIGSA ([1]; rate 250, evaluated after 15 d): 80 | damage to plant (100=total damage to plant; 0=no damage to plant), DIGSA ([1]; rate 500, evaluated after 15 d): 80 | damage to plant (100=total damage to plant; 0=no damage to plant), ECHCG ([1]; rate 130, evaluated after 15 d): 20 | damage to plant (100=total damage to plant; 0=no damage to plant), ECHCG ([1]; rate 250, evaluated after 15 d): 70 | damage to plant (100=total damage to plant; 0=no damage to plant), ECHCG ([1]; rate 500, evaluated after 15 d): 70 | damage to plant (100=total damage to plant; 0=no damage to plant), EPHHL ([1]; rate 130, evaluated after 15 d): 0 | damage to plant (100=total damage to plant; 0=no damage to plant), EPHHL ([1]; rate 250, evaluated after 15 d): 20 | damage to plant (100=total damage to plant; 0=no damage to plant), EPHHL ([1]; rate 500, evaluated after 15 d): 40 | damage to plant (100=total damage to plant; 0=no damage to plant), GLXMA ([1]; rate 130, evaluated after 15 d): 0 | damage to plant (100=total damage to plant; 0=no damage to plant), GLXMA ([1]; rate 250, evaluated after 15 d): 0 | damage to plant (100=total damage to plant; 0=no damage to plant), GLXMA ([1]; rate 500, evaluated after 15 d): 0 | damage to plant (100=total damage to plant; 0=no damage to plant), IPOHE ([1]; rate 130, evaluated after 15 d): 0 | damage to plant (100=total damage to plant; 0=no damage to plant), IPOHE ([1]; rate 250, evaluated after 15 d): 0 | damage to plant (100=total damage to plant; 0=no damage to plant), IPOHE ([1]; rate 500, evaluated after 15 d): 0 | damage to plant (100=total damage to plant; 0=no damage to plant), ORYSA ([1]; rate 130, evaluated after 15 d): 0 | damage to plant (100=total damage to plant; 0=no damage to plant), ORYSA ([1]; rate 250, evaluated after 15 d): 0 | damage to plant (100=total damage to plant; 0=no damage to plant), ORYSA ([1]; rate 500, evaluated after 15 d): 0 | damage to plant (100=total damage to plant; 0=no damage to plant), PANMI ([1]; rate 130, evaluated after 15 d): 0 | damage to plant (100=total damage to plant; 0=no damage to plant), PANMI ([1]; rate 250, evaluated after 15 d): 0 | damage to plant (100=total damage to plant; 0=no damage to plant), PANMI ([1]; rate 500, evaluated after 15 d): 0 | damage to plant (100=total damage to plant; 0=no damage to plant), SETFA ([1]; rate 130, evaluated after 15 d): 0 | damage to plant (100=total damage to plant; 0=no damage to plant), SETFA ([1]; rate 250, evaluated after 15 d): 70 | damage to plant (100=total damage to plant; 0=no damage to plant), SETFA ([1]; rate 500, evaluated after 15 d): 70 | damage to plant (100=total damage to plant; 0=no damage to plant), SIDSP ([1]; SIDSP, rate 500, evaluated after 15 d): 30 | damage to plant (100=total damage to plant; 0=no damage to plant), SORVU ([1]; rate 130, evaluated after 15 d): 0 | damage to plant (100=total damage to plant; 0=no damage to plant), SORVU ([1]; rate 250, evaluated after 15 d): 0 | damage to plant (100=total damage to plant; 0=no damage to plant), SORVU ([1]; rate 500, evaluated after 15 d): 60 | damage to plant (100=total damage; 0=no damage) ZEAMX ([2]; Post-Emergence at 15.625 g/ha): 20 | damage to plant (100=total damage; 0=no damage) ZEAMX ([2]; Post-Emergence at 62.5 g/ha): 40 | damage to plant (100=total damage; 0=no damage) ZEAMX ([2]; Post-Emergence at 250 g/ha): 80 | damage to plant (100=total damage; 0=no damage) ABUTH ([3]; Pre-Emergence at 15.625 g/ha): 0 | damage to plant (100=total damage; 0=no damage) ABUTH ([3]; Pre-Emergence at 62.5 g/ha): 0 | damage to plant (100=total damage; 0=no damage) ABUTH ([3]; Pre-Emergence at 250 g/ha): 0 | damage to plant (100=total damage; 0=no damage) ECHCG ([4]; Pre-Emergence at 15.625 g/ha): 70 | damage to plant (100=total damage; 0=no damage) ECHCG ([4]; Pre-Emergence at 62.5 g/ha): 80 | damage to plant (100=total damage; 0=no damage) ECHCG ([4]; Pre-Emergence at 250 g/ha): 90 | damage to plant (100=total damage; 0=no damage) IPOHE ([5]; Pre-Emergence at 15.625 g/ha): 20 | damage to plant (100=total damage; 0=no damage) IPOHE ([5]; Pre-Emergence at 62.5 g/ha): 20 | damage to plant (100=total damage; 0=no damage) IPOHE ([5]; Pre-Emergence at 250 g/ha): 80
